This note sets out measurements from patent publication US9458123B2, “Methods, pharmaceutical compositions, therapeutic systems, and compounds for treating B cell malignancies” (University of Rochester, priority 2012, dated 2016).

One test has as its target T1, Ubc13-Uev1A complex (Homo sapiens, UniProt P61088).
T1 construct: made in house; host or cells: E. coli BL21 (GST-Ubc13); OCI-Ly10 cell lysate (Uev1A)
In words: GST pull-down, in vitro interaction between Ubc13 and Uev1A. In kind it is binding. The conditions noted are these: GST-Ubc13, OCI-Ly10 cell extract. The procedure:
Purified GST or GST-Ubc13 fusion proteins were incubated with the cell extract prepared from OCI-Ly10 cells with or without the presence of NSC697923 as indicated. The amounts of Uev1A protein associated with GST or GST-Ubc13 were analyzed by western blotting. The first lane was loaded with 8% of the input cell lysate. […] The assay was carried out as described in FIG. 4A, except that the loading buffer for SDS-PAGE gel contains no reducing agent, unless otherwise specified, and the reaction was analyzed by western blotting with a Ubc13-specific antibody. […] The assay was carried out as in FIG. 5B, except that UbcHSc, instead of Ubc13 and Uev1A, was used in the ubiquitination reaction and that a UbcHSc antibody was used for western blot analysis. […]
GST-Ubc13 bound on glutathione-agarose beads was incubated with cell lysates prepared from OCI-Ly10 cells, with or without the presence of NSC697923, at 4° C. for 1 hour. […] The amounts of GST-Ubc13 and Uev1A proteins bound to the beads were then analyzed by western blotting.

Another test has as its system ABC DLBCL cells. In words: Growth of ABC DLBCL cells, trypan blue exclusion assay. It counts as cell-based. The conditions noted are these: including OCI-Ly3 cells, 24 hours. How it is done:
The indicated ABC DLBCL cells were seeded at 3×10^5 cells/ml in 6-well plates and cultured in the presence of DMSO (0.2%, control) or various concentrations of NSC697923 for 24 hours. The live and dead cells were counted using the trypan blue exclusion assay. Shown are the means from three separate experiments. The average number of live cells in the control was set at 100. […] The levels of the indicated proteins were analyzed by western blotting. For caspase 3 detection, a mixture of an antibody for the uncleaved form and an antibody specific for the cleaved form was used. In FIG. 7C, OCI-Ly10 cells were treated as in FIG. 7A. The apoptotic cells (Annexin V positive cells) were measured by flow cytometry as described in Example 1 infra. A representative result from three independent experiments is depicted. […] BrdU was then added into the culture medium for 30 minutes before the cell-cycle distribution of the treated cells was analyzed as described in Example 1 infra. Shown are the averages from two independent experiments. […] BrdU was then added into the culture medium for 30 minutes before the cell-cycle distribution of the treated cells was analyzed as described in Example 1 infra. Shown are the averages from two independent experiments. […]

The subject of the next test is primary DLBCL cells. In words: Apoptosis of primary DLBCL cells, annexin V. It counts as cell-based. Conditions: primary cells from two DLBCL patients, 24 hours. The procedure: The primary cancer cells, prepared from two DLBCL patients and grown in culture medium for seven days, were seeded at 4.5×10^5 cells/mL and treated with the indicated concentrations of NSC697923 for 24 hours. The apoptotic cells were analyzed as described in FIG. 7C. Shown are the averages from two independent experiments.
Apoptosis was assayed using the 7AAD/annexin V apoptosis kit (BD Bioscience) as previously described (Kim et al., “Protein Kinase C-Associated Kinase is Required for NF-kappaB Signaling and Survival in Diffuse Large B-Cell Lymphoma Cells,” Blood 111:1644-1653 (2008), which is hereby incorporated by reference in its entirety). Analysis of the cell cycle distribution of the treated cells was carried out with propidium iodide (PI) and BrdU double staining as previously described (DeRan et al., “Assessing G1-to-S-Phase Progression after Genotoxic Stress,” Methods Mol. Biol. 782:221-230 (2011) and Su et al., “DNA Damage Induces Downregulation of Histone Gene Expression Through the G1 Checkpoint Pathway,” EMBO. J. 23:1133-1143 (2004), each of which is hereby incorporated by reference in its entirety).

Structures are written as SMILES.

T1 sequence (P61088 whole entry): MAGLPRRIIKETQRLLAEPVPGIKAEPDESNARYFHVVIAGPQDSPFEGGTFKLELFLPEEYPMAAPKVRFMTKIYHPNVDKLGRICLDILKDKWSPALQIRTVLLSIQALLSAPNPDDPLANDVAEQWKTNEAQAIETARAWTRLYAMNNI
T1 sequence (Q13404 whole entry partner): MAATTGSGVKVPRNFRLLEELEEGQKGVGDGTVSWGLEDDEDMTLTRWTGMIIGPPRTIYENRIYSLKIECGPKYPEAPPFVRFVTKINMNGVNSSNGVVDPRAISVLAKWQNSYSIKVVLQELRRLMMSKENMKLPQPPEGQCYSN

Regarding `Cc1ccc(S(=O)(=O)c2ccc([N+](=O)[O-])o2)cc1` [NSC697923, 2-nitro-5-tosylfuran], on Ubc13-Uev1A complex, the “complex formation between Ubc13 and Uev1A” value is reported as “no inhibitory effect”. For the same compound, in the test on ABC DLBCL cells, the “proliferation and survival of ABC DLBCL cells” value was “induced proliferation arrest and cell death”. For the same compound, the “Annexin-positive (apoptotic) cells” value in the test on primary DLBCL cells is recorded as “increase in Annexinpositive (apoptotic) cells”.
